The nature of data set [1]: Pharmacokinetic experiment on rats: brain entry ratio (brain tissue/plasma concentration ratio). The data set is classed as in vivo. To be noted: rat, male SD rats, po 10 mg/kg, Table 7. As for the experimental part: The drug concentration ratio of plasma and brain tissue in the pharmacokinetic experiment on rats was used to evaluate the entry of compounds into brain. All rats fasted overnight before administration; the test compounds were dissolved and administered orally (po) to male SD rats, with 3 rats in each group. After administration of the test compounds, blood was collected by jugular vein puncture at 0.5 hours with about 0.25 mL per sample. The whole brain was taken at the same time. The plasma and brain tissue drug concentration were determined by LC-MS/MS method, and the pharmacokinetic parameters were calculated by Phoenix WinNonlin7.0. The dosage was 10 mg/kg, and the vehicle was 5% CMC-Na aqueous solution.

The nature of data set [2]: Thermodynamic solubility in simulated intestinal fluid (TS in FaSSIF). The data set is classed as physicochemical. To be noted: thermodynamic from solid, 37° C. In short, it runs like this: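 About 0.3 mg solid shaken in 1.5 mL FaSSIF-V2 at 1000 rpm, 37° C, 4 hours, in duplicate, then filtered. Filtrate quantified by HPLC-UV against 1 μM-200 μM standards diluted from 10 mM DMSO stock.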

The target of the next data set is T1, α5-GABAA receptor (Homo sapiens, UniProt P18507+P31644).
T1 construct: expressed in transfected cells; host or cells: HEK293, monoclonal stably transfected line
As to the kind of experiment: Cell-level screening: whole cell patch clamp, inverse agonist efficacy on α5-GABAA receptor expressed in HEK293. The data set is classed as cell-based. Particulars: drug 100 nM, GABA 0.05 μM, HEK293 expressing α5, β3 and γ2 subunits, clamped at −60 mV; read-out: Compound inverse agonist efficacy %. A digest of the protocol:
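Whole-cell patch clamp at −60 mV on HEK293 stably expressing α5β3γ2, pH 7.4 extracellular/CsCl internal solutions. Current evoked by 0.05 μM GABA, then compound in GABA solution; screening at 100 nM, dose-response 0.3–300 nM. Inverse agonist efficacy as % change of GABA current.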
Background: Patch clamp records ionic current or voltage across a cell membrane.

For orientation: Kp means tissue or fluid exposure divided by exposure in the circulation. One may read the thermodynamic solubility as solubility found after equilibrating the solid with the medium.

The structures appear in SMILES notation. ≈ marks a conversion by molar mass, not a printed value.

T1 sequence (P31644 32-462): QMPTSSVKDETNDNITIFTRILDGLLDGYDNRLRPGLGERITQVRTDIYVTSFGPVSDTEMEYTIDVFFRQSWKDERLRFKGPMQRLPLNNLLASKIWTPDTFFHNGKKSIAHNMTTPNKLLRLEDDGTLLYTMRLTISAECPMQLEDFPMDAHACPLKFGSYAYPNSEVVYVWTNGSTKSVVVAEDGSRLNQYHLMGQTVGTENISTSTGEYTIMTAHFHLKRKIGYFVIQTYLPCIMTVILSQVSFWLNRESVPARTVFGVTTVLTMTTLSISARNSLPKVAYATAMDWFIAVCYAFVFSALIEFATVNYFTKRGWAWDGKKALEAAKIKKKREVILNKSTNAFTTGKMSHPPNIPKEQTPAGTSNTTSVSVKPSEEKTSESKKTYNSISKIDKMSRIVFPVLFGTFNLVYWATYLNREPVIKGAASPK
T1 sequence (P28472 26-473 partner): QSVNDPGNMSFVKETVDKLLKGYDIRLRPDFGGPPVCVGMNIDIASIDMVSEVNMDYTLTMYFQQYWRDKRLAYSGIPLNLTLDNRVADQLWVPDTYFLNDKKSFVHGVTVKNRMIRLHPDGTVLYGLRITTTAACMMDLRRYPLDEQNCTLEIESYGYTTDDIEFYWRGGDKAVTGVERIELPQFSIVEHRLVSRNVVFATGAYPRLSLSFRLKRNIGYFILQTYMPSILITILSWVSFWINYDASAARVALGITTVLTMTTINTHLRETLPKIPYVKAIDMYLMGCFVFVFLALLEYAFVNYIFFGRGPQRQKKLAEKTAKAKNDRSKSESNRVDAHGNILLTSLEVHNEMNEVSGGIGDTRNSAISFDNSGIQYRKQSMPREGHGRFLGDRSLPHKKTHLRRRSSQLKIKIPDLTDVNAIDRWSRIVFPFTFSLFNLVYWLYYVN
T1 sequence (P18507 40-467 isoform P18507-1 limits assumed): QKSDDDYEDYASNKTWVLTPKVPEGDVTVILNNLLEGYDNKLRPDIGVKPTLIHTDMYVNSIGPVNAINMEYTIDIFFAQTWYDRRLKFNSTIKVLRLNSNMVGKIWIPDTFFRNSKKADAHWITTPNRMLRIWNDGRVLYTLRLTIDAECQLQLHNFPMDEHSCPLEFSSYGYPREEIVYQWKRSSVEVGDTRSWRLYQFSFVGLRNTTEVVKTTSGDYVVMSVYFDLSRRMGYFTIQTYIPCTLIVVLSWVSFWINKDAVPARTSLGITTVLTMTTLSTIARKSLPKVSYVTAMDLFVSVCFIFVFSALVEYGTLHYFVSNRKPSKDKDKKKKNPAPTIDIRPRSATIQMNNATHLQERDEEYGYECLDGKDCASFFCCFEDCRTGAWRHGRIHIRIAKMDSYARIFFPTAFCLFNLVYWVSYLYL

`COc1cc2nnc(-c3cc(C)on3)n2nc1OCc1ccc2c(n1)CCN(C1COC1)C2` [Embodiment 84, 3-(7-Methoxy-6-((6-(oxetan-3-yl)-5,6,7,8-tetrahydro-1,6-naphthyridin-2-yl)methoxy)-[1,2,4]triazolo[4,3-b]pyridazin-3-yl)-5-methylisoxazole]: the Kp at 0.5 h in data set [1] was found to be 0.0045. For the same molecule, in data set [2], the solubility (thermodynamic) at 4 h is 197 µg/mL (≈ 438 µM). Besides, the inhibition at 0.1 µM on α5-GABAA receptor was determined as 39.6%.

In the case of `COc1cc2nnc(-c3cc(C)on3)n2nc1OCc1ccc(C2(F)CN(C3COC3)C2)cn1` [Embodiment 128], the concentration ratio (Kp) at 0.5 h in data set [1] was 0.032. For the same molecule, the thermodynamic solubility at 4 h in data set [2] was 118 µg/mL (≈ 253 µM). Also, the inhibition at 0.1 µM on α5-GABAA receptor amounted to 41.2%.

As to `COCCCOc1ccc(COc2nn3c(-c4noc(C)n4)nnc3cc2OC)nn1` [Embodiment 129], in data set [1], the Kp at 0.5 h stood at 0.047. This molecule also gave a solubility (thermodynamic) at 4 h in data set [2] of 85.4 µg/mL (≈ 199 µM). Besides, the inhibition at 0.1 µM at α5-GABAA receptor came out at 45.8%.

Turning to `COCc1ccc(COc2nn3c(-c4cc(C)on4)nnc3cc2OC)nn1` [Embodiment 151], the Kp at 0.5 h in data set [1] turned out to be 0.02. Besides, the solubility (thermodynamic) at 4 h in data set [2] is 175 µg/mL (≈ 456 µM). The inhibition at 0.1 µM at α5-GABAA receptor was determined as 55.8%.

As to `COc1cc2nnc(-c3cc(C)on3)n2nc1OCc1ccc(OC2CCOCC2)nn1` [Embodiment 152], the concentration ratio (Kp) at 0.5 h in data set [1] was determined as 0.0243. In data set [2], this molecule yielded a solubility (thermodynamic) at 4 h of 44 µg/mL (≈ 100 µM). Besides, at α5-GABAA receptor, the inhibition at 0.1 µM came to 39.3%.

On to `COc1cc2nnc(-c3cc(C)on3)n2nc1OCc1ccc(OC2COC2)nn1` [Embodiment 153], for which the Kp at 0.5 h in data set [1] came out at 0.02. In data set [2], this molecule yielded a solubility (thermodynamic) at 4 h of 189 µg/mL (≈ 460 µM). In addition, on α5-GABAA receptor, the inhibition at 0.1 µM was determined as 49.4%.

Consider `COc1cc2nnc(-c3cc(C)on3)n2nc1OCc1ccc(OC2CCOC2)nn1` (stereo not drawn) [Embodiment 154], for which the Kp at 0.5 h in data set [1] came out at 0.0257. Also, the solubility (thermodynamic) at 4 h in data set [2] was 177 µg/mL (≈ 416 µM). In addition, the inhibition at 0.1 µM at α5-GABAA receptor was 45.2%.

Turning to `COc1cc2nnc(-c3cc(C)on3)n2nc1OCc1ccc2c(n1)CN(C)C2` [Embodiment 160, 3-(7-Methoxy-6-((6-methyl-6,7-dihydro-5H-pyrrolo[3,4-b]pyridin-2-yl)methoxy)-[1,2,4]triazolo[4,3-b]pyridazin-3-yl)-5-methylisoxazole], the Kp at 0.5 h in data set [1] was 0.0441. In addition, in data set [2], the solubility (thermodynamic) at 4 h was 246 µg/mL (≈ 625 µM). Besides, the inhibition at 0.1 µM at α5-GABAA receptor was found to be 49.3%.

For the molecule `COCCOCc1ccc(COc2nn3c(-c4cc(C)on4)nnc3cc2OC)nn1` [Embodiment 166], in data set [1], the partition ratio (Kp) at 0.5 h was determined as 0.01. In data set [2], this molecule came in with a thermodynamic solubility at 4 h of 300 µg/mL (≈ 702 µM). In addition, at α5-GABAA receptor, the inhibition at 0.1 µM was 49.9%.

For the molecule `COc1cc2nnc(-c3cc(C)on3)n2nc1OCc1ccc2c(n1)CCN(C(CO)CO)C2` [Embodiment 185], in data set [1], the partition ratio (Kp) at 0.5 h came out at 0. In addition, the thermodynamic solubility at 4 h in data set [2] was 239 µg/mL (≈ 511 µM). The inhibition at 0.1 µM at α5-GABAA receptor was found to be 45.6%.

For the molecule `COc1cc2nnc(-c3cc(C)on3)n2nc1OCc1ccc2c(n1)CCN(C1CCOCC1)C2` [Embodiment 186], the concentration ratio (Kp) at 0.5 h in data set [1] was found to be 0.0442. This molecule also yielded a thermodynamic solubility at 4 h in data set [2] of 95.4 µg/mL (≈ 200 µM). At α5-GABAA receptor, the inhibition at 0.1 µM worked out at 56%.

With `COc1cc2nnc(-c3cc(C)on3)n2nc1OCc1ccc2c(n1)CCN(Cc1cc(C)on1)C2` [Embodiment 187], the Kp at 0.5 h in data set [1] turned out to be 0.0293. The molecule also had a solubility (thermodynamic) at 4 h in data set [2] of 176 µg/mL (≈ 361 µM). Moreover, on α5-GABAA receptor, the inhibition at 0.1 µM is 50.4%.

With `COCc1cn2nc(COc3nn4c(-c5cc(C)on5)nnc4cc3OC)ccc2n1` [Embodiment 213], in data set [1], the partition ratio (Kp) at 0.5 h came to 0.0179. The thermodynamic solubility at 4 h in data set [2] was 30.2 µg/mL (≈ 71.4 µM). Moreover, the inhibition at 0.1 µM at α5-GABAA receptor was 59.5%.

In the case of `COc1cc2nnc(-c3cc(C)on3)n2nc1OCc1ccc2c(n1)CN(C1CCOCC1)C2` [Embodiment 253], in data set [1], the partition ratio (Kp) at 0.5 h is 0.0133. In addition, the solubility (thermodynamic) at 4 h in data set [2] was 38.9 µg/mL (≈ 83.9 µM). Besides, the inhibition at 0.1 µM on α5-GABAA receptor was determined as 56.1%.

The record behind these values is patent publication US12637468B2, “Substituted [1,2,4]triazolo[4,3-b]pyridazines as GABAA receptor modulators” (SHANGHAI SIMR BIOTECHNOLOGY CO., LTD., priority 2019, dated 2026).
